In BindingDB's records for patent US12128018 (Kdac Therapeutics, 2024):
pIC50: −log10 of the molar value.

Assays:
Test in all cases: Inhibition of Histone Deacetylase Enzymatic Activity
[1] = molecular target: T1, Histone deacetylase 8 (Homo sapiens, UniProt Q9BY41)
T1 sequence (Q9BY41 whole entry): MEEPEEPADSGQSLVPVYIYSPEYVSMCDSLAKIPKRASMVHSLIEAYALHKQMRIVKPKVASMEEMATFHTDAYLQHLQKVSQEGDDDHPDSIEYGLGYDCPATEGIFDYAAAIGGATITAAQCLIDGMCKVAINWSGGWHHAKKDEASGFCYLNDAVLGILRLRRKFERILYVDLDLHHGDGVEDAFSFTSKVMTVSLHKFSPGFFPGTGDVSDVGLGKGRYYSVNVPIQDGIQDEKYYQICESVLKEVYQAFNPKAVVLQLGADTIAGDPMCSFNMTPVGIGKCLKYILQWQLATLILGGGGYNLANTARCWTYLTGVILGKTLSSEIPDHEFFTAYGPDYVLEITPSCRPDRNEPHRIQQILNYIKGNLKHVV
Experimental: (§1) Its final concentration in the assay for HDACs 1,2,3,6 is 2 μM.Substrate B was prepared as 2 mM in 100% DMSO. Its final concentration in the assay for HDACs 4,5,7,8,9 is 2 μM.LBH was used as quench inhibitor to stop the reaction at the end point.

[2] = molecular target: Histone deacetylase 4 (Homo sapiens, UniProt P56524)
Sequence of Histone deacetylase 4 (P56524 whole entry): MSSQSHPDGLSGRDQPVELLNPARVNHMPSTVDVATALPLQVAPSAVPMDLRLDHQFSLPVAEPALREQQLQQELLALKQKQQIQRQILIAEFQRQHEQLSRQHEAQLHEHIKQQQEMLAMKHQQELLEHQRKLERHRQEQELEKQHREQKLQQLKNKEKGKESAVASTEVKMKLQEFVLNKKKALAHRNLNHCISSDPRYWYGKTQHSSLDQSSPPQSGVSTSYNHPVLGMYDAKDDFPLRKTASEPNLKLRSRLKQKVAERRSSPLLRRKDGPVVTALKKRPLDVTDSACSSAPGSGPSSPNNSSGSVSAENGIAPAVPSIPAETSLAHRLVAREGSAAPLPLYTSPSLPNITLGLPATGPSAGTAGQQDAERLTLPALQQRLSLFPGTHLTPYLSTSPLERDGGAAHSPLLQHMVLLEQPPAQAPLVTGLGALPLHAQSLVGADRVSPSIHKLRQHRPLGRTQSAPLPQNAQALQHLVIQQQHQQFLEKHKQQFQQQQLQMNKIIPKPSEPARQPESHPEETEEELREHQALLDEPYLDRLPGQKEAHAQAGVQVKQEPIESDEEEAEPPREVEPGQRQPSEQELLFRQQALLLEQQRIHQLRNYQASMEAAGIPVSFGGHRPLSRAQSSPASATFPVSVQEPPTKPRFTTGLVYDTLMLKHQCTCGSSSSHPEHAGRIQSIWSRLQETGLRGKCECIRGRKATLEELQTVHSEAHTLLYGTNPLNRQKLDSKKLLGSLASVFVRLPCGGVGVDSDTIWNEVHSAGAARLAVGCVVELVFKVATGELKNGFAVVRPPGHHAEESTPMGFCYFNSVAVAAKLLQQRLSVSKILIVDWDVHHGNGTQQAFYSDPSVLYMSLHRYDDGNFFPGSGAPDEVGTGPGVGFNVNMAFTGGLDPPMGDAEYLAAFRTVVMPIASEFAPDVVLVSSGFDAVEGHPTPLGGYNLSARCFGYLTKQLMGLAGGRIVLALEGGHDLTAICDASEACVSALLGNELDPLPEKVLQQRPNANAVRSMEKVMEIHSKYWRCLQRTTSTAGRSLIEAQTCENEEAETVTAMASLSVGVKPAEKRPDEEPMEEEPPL
Experimental: as §1

[3] = molecular target: Histone deacetylase 9 (Homo sapiens, UniProt Q9UKV0)
Sequence of Histone deacetylase 9 (Q9UKV0 whole entry): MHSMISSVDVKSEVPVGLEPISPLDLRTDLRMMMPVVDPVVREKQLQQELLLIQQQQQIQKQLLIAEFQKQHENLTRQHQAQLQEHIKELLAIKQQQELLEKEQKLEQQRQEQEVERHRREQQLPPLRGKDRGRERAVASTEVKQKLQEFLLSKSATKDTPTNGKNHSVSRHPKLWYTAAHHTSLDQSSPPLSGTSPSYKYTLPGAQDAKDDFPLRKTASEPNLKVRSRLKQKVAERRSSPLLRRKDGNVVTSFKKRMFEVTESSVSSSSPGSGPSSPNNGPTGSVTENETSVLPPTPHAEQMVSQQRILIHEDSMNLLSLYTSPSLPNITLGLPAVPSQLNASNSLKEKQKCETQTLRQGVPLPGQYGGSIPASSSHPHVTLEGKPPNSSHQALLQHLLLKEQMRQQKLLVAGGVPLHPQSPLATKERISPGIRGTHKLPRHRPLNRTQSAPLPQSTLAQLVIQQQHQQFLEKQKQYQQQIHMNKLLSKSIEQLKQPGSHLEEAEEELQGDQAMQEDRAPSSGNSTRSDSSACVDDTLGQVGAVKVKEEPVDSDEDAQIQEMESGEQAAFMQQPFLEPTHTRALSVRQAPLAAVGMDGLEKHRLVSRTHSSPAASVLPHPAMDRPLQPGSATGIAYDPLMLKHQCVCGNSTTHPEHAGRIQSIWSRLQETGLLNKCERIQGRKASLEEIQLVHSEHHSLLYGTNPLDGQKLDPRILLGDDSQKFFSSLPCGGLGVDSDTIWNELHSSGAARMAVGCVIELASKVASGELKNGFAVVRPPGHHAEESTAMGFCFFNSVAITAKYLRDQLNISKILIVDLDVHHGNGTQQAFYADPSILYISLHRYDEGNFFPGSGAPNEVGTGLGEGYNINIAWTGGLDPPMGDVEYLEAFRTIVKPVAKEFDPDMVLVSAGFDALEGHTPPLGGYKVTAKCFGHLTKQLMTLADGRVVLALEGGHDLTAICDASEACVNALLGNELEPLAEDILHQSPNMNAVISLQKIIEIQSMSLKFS
Experimental: as §1

[4] = molecular target: T2, Histone deacetylase 7 (Homo sapiens, UniProt Q8WUI4)
T2 sequence (Q8WUI4 whole entry): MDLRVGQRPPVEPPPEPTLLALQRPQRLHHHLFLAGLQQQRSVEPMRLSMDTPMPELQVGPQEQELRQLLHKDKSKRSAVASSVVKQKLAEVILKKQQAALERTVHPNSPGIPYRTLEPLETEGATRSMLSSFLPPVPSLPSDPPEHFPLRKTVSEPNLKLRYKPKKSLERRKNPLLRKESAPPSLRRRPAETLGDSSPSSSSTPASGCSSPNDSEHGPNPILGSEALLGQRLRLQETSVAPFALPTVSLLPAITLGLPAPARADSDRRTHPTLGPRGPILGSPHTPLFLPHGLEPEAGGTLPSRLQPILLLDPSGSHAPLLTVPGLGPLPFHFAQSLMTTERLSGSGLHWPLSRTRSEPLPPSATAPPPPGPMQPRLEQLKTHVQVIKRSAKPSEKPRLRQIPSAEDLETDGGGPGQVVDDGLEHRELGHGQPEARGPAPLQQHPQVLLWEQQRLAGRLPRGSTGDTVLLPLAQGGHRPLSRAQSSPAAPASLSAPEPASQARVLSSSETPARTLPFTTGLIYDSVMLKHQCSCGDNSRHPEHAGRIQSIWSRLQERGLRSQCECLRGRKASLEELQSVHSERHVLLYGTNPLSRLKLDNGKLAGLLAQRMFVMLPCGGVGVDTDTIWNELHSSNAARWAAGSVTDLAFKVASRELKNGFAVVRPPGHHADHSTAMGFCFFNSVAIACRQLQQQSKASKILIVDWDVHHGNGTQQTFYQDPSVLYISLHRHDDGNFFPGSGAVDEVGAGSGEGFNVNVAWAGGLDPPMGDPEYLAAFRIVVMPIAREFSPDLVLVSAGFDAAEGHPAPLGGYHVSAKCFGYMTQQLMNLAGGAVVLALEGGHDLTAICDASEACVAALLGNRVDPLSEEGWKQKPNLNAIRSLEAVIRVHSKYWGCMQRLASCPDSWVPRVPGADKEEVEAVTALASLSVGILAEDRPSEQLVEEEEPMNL
Experimental: as §1

[5] = molecular target: T3, Histone deacetylase 6 (Homo sapiens, UniProt Q9UBN7)
T3 sequence (Q9UBN7 whole entry): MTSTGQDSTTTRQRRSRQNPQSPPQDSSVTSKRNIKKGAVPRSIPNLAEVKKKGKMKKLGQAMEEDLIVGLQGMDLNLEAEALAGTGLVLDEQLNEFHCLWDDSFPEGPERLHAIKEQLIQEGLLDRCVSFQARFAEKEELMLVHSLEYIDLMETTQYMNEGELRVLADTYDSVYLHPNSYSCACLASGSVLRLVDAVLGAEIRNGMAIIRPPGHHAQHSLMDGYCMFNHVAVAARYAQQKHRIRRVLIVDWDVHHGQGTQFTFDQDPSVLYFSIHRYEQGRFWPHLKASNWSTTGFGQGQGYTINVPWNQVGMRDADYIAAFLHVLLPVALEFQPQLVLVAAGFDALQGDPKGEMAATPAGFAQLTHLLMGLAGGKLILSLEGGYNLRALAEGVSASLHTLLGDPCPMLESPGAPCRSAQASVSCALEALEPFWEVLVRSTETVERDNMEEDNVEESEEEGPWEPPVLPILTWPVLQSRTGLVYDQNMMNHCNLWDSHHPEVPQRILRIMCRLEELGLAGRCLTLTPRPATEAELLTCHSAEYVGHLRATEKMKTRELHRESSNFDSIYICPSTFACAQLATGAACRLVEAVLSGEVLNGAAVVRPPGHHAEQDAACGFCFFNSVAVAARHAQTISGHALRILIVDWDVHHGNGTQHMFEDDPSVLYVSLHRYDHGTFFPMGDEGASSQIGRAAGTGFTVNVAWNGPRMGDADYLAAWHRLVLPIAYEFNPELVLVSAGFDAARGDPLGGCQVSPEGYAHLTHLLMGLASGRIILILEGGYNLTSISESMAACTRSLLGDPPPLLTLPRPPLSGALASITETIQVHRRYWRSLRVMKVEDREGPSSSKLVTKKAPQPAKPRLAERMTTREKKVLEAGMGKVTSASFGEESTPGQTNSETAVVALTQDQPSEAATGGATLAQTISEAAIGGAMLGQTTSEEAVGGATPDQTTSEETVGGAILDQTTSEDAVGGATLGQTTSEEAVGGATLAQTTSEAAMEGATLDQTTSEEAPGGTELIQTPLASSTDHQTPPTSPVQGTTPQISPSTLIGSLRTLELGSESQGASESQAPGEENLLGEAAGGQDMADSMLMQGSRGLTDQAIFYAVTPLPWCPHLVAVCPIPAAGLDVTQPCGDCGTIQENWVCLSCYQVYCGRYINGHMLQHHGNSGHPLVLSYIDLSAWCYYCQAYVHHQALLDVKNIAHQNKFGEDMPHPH
Experimental: as §1

[6] = molecular target: Histone deacetylase 5 (Homo sapiens, UniProt Q9UQL6)
Sequence of Histone deacetylase 5 (Q9UQL6 whole entry): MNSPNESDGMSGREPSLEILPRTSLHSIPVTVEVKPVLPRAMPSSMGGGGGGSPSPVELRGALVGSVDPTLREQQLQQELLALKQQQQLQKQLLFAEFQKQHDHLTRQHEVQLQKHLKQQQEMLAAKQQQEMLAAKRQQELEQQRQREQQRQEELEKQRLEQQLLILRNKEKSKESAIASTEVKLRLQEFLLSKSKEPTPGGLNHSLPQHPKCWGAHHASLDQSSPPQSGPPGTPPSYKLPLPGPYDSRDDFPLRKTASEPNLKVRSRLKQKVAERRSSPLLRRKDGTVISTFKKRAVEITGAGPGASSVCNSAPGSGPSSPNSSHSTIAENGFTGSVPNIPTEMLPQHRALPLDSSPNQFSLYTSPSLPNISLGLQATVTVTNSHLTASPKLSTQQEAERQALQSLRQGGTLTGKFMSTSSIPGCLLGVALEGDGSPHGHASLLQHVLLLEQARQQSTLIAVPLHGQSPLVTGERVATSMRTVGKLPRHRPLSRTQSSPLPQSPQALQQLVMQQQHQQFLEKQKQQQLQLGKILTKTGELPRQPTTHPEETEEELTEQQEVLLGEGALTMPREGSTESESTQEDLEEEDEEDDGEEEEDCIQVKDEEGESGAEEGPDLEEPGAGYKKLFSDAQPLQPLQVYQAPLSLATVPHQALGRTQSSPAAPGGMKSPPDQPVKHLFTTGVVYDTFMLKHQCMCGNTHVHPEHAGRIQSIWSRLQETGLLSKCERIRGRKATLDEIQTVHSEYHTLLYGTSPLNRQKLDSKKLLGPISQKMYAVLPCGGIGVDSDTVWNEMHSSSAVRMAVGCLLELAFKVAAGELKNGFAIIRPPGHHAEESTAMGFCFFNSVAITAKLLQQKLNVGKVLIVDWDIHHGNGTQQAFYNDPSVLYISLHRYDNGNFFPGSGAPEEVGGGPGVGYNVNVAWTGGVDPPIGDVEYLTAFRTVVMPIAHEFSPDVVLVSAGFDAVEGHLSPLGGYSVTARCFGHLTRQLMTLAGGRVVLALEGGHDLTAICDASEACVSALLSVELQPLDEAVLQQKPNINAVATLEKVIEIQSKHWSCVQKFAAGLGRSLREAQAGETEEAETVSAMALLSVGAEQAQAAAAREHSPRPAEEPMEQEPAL
Experimental: as §1

Measured: pIC50

CC(=O)Nc1ccc(C(=O)Nc2ccc(F)cc2N)cc1 [US12128018, Compound I-1]
< 4.52: all assays above
